Tested on: Atrial natriuretic peptide receptor 1 (Oryctolagus cuniculus)
Test: Binding affinity towards the low-affinity site atrionatriuretic peptide receptor 1 of rabbit adrenal membrane

Structure (SMILES)	KL [nM]
CC[C@H](C)[C@@H]1NC(=O)[C@@H](CCCN=C(N)N)NC(=O)CNC(=O)CNC(=O)[C@@H](Cc2ccccc2)NC(=O)[C@H](NC(=O)[C@@H](CO)NC(=O)[C@H](N)CO)CSSC[C@H](C(=O)O)NC(=O)[C@@H](CCCN=C(N)N)NC(=O)[C@H](Cc2ccccc2)NC(=O)[C@@H]([C@@H](C)CC)NC(=O)[C@H](CCCN=C(N)N)NC(=O)[C@@H](CC(=O)O)NC1=O	790
CC[C@H](C)[C@@H]1NC(=O)[C@@H](CCCN=C(N)N)NC(=O)CNC(=O)CNC(=O)[C@@H](Cc2ccccc2)NC(=O)[C@@H](C)NC(=O)[C@H](NC(=O)[C@H](CO)NC(=O)[C@@H](N)CO)CSSC[C@H](C(=O)N[C@H](Cc2ccccc2)C(=O)N[C@H](CCCN=C(N)N)C(=O)O)NC(=O)[C@@H]([C@@H](C)CC)NC(=O)[C@H](C)NC(=O)[C@@H](CC(=O)O)NC1=O	7100
CC[C@H](C)[C@@H]1NC(=O)[C@@H](CCCN=C(N)N)NC(=O)CNC(=O)CNC(=O)[C@@H](Cc2ccccc2)NC(=O)[C@H](NC(=O)[C@H](CO)NC(=O)[C@@H](N)CO)CSSC[C@H](C(=O)N[C@H](Cc2ccccc2)C(=O)N[C@H](CCCN=C(N)N)C(=O)O)NC(=O)[C@@H]([C@@H](C)CC)NC(=O)[C@H](CCCN=C(N)N)NC(=O)[C@@H](CC(=O)O)NC1=O	4400
CC[C@H](C)[C@@H]1NC(=O)[C@@H](CCCN=C(N)N)NC(=O)CNC(=O)CNC(=O)[C@@H](Cc2ccccc2)NC(=O)C(C)NC(=O)[C@H](N)CSSC[C@H](C(=O)N[C@H](Cc2ccccc2)C(=O)N[C@H](CCCN=C(N)N)C(=O)O)NC(=O)[C@@H]([C@@H](C)CC)NC(=O)[C@H](CCCN=C(N)N)NC(=O)[C@@H](CC(=O)O)NC1=O (stereo in doubt)	2700
CC[C@H](C)[C@@H]1NC(=O)[C@H](CCCN=C(N)N)NC(=O)[C@@H](CC(=O)O)NC(=O)[C@H]([C@@H](C)CC)NC(=O)[C@@H](CCCN=C(N)N)NC(=O)CNC(=O)CNC(=O)[C@@H](Cc2ccccc2)NC(=O)C(C)NC(=O)[C@@H](NC(=O)[C@H](CO)NC(=O)[C@@H](N)CO)CSSC[C@@H](C(=O)N2C[C@@H](C(=O)N[C@H](CCCN=C(N)N)C(=O)O)Cc3ccccc32)NC1=O (stereo in doubt)	540
CC[C@H](C)[C@@H]1NC(=O)[C@@H](CCCN=C(N)N)NC(=O)CNC(=O)CNC(=O)[C@@H](C2CCCCC2)NC(=O)CCSSC[C@H](C(N)=O)NC(=O)[C@@H](CCCN=C(N)N)NC(=O)[C@H](Cc2ccccc2)NC(=O)[C@@H]([C@@H](C)CC)NC(=O)[C@H](CCCN=C(N)N)NC(=O)[C@@H](CCC(=O)O)NC1=O	430
CC[C@H](C)[C@@H]1NC(=O)[C@@H](CCCN=C(N)N)NC(=O)CNC(=O)CNC(=O)[C@@H](Cc2cc(I)c(O)c(I)c2)NC(=O)[C@H](NC(=O)[C@H](N)CCCN=C(N)N)CSSC[C@H](C(N)=O)NC(=O)[C@@H](CCCN=C(N)N)NC(=O)[C@H](Cc2ccccc2)NC(=O)[C@@H]([C@@H](C)CC)NC(=O)[C@H](CCCN=C(N)N)NC(=O)[C@@H](CC(=O)O)NC1=O	1700
CC[C@H](C)[C@@H]1NC(=O)[C@H](CCCN=C(N)N)NC(=O)[C@@H](CC(=O)O)NC(=O)[C@H]([C@@H](C)CC)NC(=O)[C@H](CCCNC(N)=O)NC(=O)CNC(=O)CNC(=O)[C@@H](Cc2ccccc2)NC(=O)[C@@H](C)NC(=O)[C@@H](NC(=O)[C@H](CO)NC(=O)[C@@H](N)CO)CSSC[C@@H](C(=O)N[C@H](Cc2ccccc2)C(=O)N[C@H](CCCN=C(N)N)C(=O)O)NC1=O	6900
CC[C@H](C)[C@@H]1NC(=O)[C@@H](CCCN=C(N)N)NC(=O)CNC(=O)CNC(=O)[C@H](Cc2ccccc2)NC(=O)[C@H](NC(=O)[C@H](CO)NC(=O)[C@@H](N)CO)CSSC[C@H](C(=O)N[C@H](Cc2ccccc2)C(=O)N[C@H](CCCN=C(N)N)C(=O)O)NC(=O)[C@@H]([C@@H](C)CC)NC(=O)[C@H](CCCN=C(N)N)NC(=O)[C@@H](CC(=O)O)NC1=O	2000
CC[C@H](C)[C@@H]1NC(=O)[C@@H](CCCN=C(N)N)NC(=O)CNC(=O)CNC(=O)[C@@H](Cc2ccccc2)NC(=O)[C@H](C2CCCCC2)NC(=O)[C@H](NC(=O)[C@H](CO)NC(=O)[C@@H](N)CO)CSSC[C@H](C(=O)N[C@H](Cc2ccccc2)C(=O)N[C@H](CCCN=C(N)N)C(=O)O)NC(=O)[C@@H]([C@@H](C)CC)NC(=O)[C@H](CCCN=C(N)N)NC(=O)[C@@H](CC(=O)O)NC1=O	180
CC[C@H](C)[C@@H]1NC(=O)[C@@H](CCCN=C(N)N)NC(=O)CNC(=O)CNC(=O)[C@@H](Cc2ccccc2)NC(=O)C(C)NC(=O)[C@H](NC(=O)[C@@H](N)CCCCN)CSSC[C@H](C(=O)N[C@H](Cc2ccccc2)C(=O)N[C@H](CCCN=C(N)N)C(=O)O)NC(=O)[C@@H]([C@@H](C)CC)NC(=O)[C@H](CCCN=C(N)N)NC(=O)[C@@H](CC(=O)O)NC1=O (stereo in doubt)	390
CC[C@H](C)[C@@H]1NC(=O)[C@@H](CCCCN)NC(=O)CNC(=O)CNC(=O)[C@@H](C2CCCCC2)NC(=O)CCSSC[C@H](C(N)=O)NC(=O)[C@@H](CCCN=C(N)N)NC(=O)[C@H](Cc2ccccc2)NC(=O)[C@@H]([C@@H](C)CC)NC(=O)[C@H](CCCN=C(N)N)NC(=O)[C@@H](CC(=O)O)NC1=O	150
CC[C@H](C)[C@@H]1NC(=O)[C@@H](CCCN=C(N)N)NC(=O)C2CCC(CC2)NC(=O)C2CCC(CC2)NC(=O)[C@@H](Cc2ccccc2)NC(=O)C(C)NC(=O)[C@H](NC(=O)[C@H](CO)NC(=O)[C@@H](N)CO)CSSC[C@H](C(=O)N[C@H](Cc2ccccc2)C(=O)N[C@H](CCCN=C(N)N)C(=O)O)NC(=O)[C@@H]([C@@H](C)CC)NC(=O)[C@H](CCCN=C(N)N)NC(=O)[C@@H](CC(=O)O)NC1=O (stereo in doubt)	1000
CC[C@H](C)[C@@H]1NC(=O)[C@@H](CCCN=C(N)N)NC(=O)CNC(=O)CNC(=O)[C@@H](Cc2ccccc2)NC(=O)CNC(=O)[C@H](NC(=O)[C@H](CO)NC(=O)[C@@H](N)CO)CSSC[C@H](C(=O)N[C@H](Cc2ccccc2)C(=O)N[C@H](CCCN=C(N)N)C(=O)O)NC(=O)[C@@H]([C@@H](C)CC)NC(=O)[C@H](CCCN=C(N)N)NC(=O)[C@@H](CC(=O)O)NC1=O	410
CC[C@H](C)[C@@H]1NC(=O)[C@@H](CCCN=C(N)N)NC(=O)CNC(=O)CNC(=O)[C@@H](Cc2ccccc2)NC(=O)C(C)NC(=O)[C@H](NC(=O)CCCCCCCN)CSSC[C@H](C(=O)N[C@H](Cc2ccccc2)C(=O)N[C@H](CCCN=C(N)N)C(=O)O)NC(=O)[C@@H]([C@@H](C)CC)NC(=O)[C@H](CCCN=C(N)N)NC(=O)[C@@H](CC(=O)O)NC1=O (stereo in doubt)	790
CC[C@H](C)[C@@H]1NC(=O)[C@@H](CCCN=C(N)N)NC(=O)CNC(=O)CNC(=O)[C@@H](C2CCCCC2)NC(=O)[C@H](NC(=O)[C@H](N)CCCN=C(N)N)CSSC[C@H](C(=O)O)NC(=O)[C@@H](CCCN=C(N)N)NC(=O)[C@H](Cc2ccccc2)NC(=O)[C@@H]([C@@H](C)CC)NC(=O)[C@H](CCCN=C(N)N)NC(=O)[C@@H](CC(=O)O)NC1=O	460
CC[C@H](C)[C@@H]1NC(=O)[C@@H](CCCN=C(N)N)NC(=O)CNC(=O)CNC(=O)[C@@H](Cc2ccccc2)NC(=O)C(C)NC(=O)[C@H](NC(=O)CCCCN)CSSC[C@H](C(=O)N[C@H](Cc2ccccc2)C(=O)N[C@H](CCCN=C(N)N)C(=O)O)NC(=O)[C@@H]([C@@H](C)CC)NC(=O)[C@H](CCCN=C(N)N)NC(=O)[C@@H](CC(=O)O)NC1=O (stereo in doubt)	280
CC[C@H](C)[C@@H]1NC(=O)[C@@H](CCCN=C(N)N)NC(=O)CNC(=O)CNC(=O)[C@@H](Cc2ccccc2)NC(=O)CCNC(=O)[C@H](NC(=O)[C@H](CO)NC(=O)[C@@H](N)CO)CSSC[C@H](C(=O)N[C@H](Cc2ccccc2)C(=O)N[C@H](CCCN=C(N)N)C(=O)O)NC(=O)[C@@H]([C@@H](C)CC)NC(=O)[C@H](CCCN=C(N)N)NC(=O)[C@@H](CC(=O)O)NC1=O	6500
CC[C@H](C)[C@@H]1NC(=O)[C@@H](CCCN=C(N)N)NC(=O)CNC(=O)CNC(=O)[C@@H](Cc2ccccc2)NC(=O)C(C)NC(=O)[C@H](NC(=O)[C@H](CO)NC(=O)[C@@H](N)CO)CSSC[C@H](C(=O)N2CC(C(=O)N[C@H](CCCN=C(N)N)C(=O)O)Cc3ccccc32)NC(=O)[C@@H]([C@@H](C)CC)NC(=O)[C@H](CCCN=C(N)N)NC(=O)[C@@H](CC(=O)O)NC1=O (stereo in doubt)	960
CC[C@H](C)[C@@H]1NC(=O)[C@@H](CCCN=C(N)N)NC(=O)CNC(=O)CNC(=O)[C@@H](Cc2ccccc2)NC(=O)CNC(=O)[C@H](NC(=O)[C@H](CO)NC(=O)[C@@H](N)CO)CSSC[C@H](C(=O)N2CCC[C@@H]2C(=O)N[C@H](CCCN=C(N)N)C(=O)O)NC(=O)[C@@H]([C@@H](C)CC)NC(=O)[C@H](CCCN=C(N)N)NC(=O)[C@@H](CC(=O)O)NC1=O	440
CC[C@H](C)[C@@H]1NC(=O)[C@@H](CCCN=C(N)N)NC(=O)CNC(=O)CNC(=O)[C@@H](Cc2ccccc2)NC(=O)C(C)NC(=O)[C@H](NC(=O)[C@@H](N)CCCN=C(N)N)CSSC[C@H](C(=O)N[C@H](Cc2ccccc2)C(=O)N[C@H](CCCN=C(N)N)C(=O)O)NC(=O)[C@@H]([C@@H](C)CC)NC(=O)[C@H](CCCN=C(N)N)NC(=O)[C@@H](CC(=O)O)NC1=O (stereo in doubt)	240
CC[C@H](C)[C@@H]1NC(=O)[C@@H](CCCN=C(N)N)NC(=O)[C@@H](C)NC(=O)[C@@H](C)NC(=O)[C@@H](C2CCCCC2)NC(=O)[C@H](NC(=O)[C@H](N)CCCN=C(N)N)CSSC[C@H](C(N)=O)NC(=O)[C@@H](CCCN=C(N)N)NC(=O)[C@H](Cc2ccccc2)NC(=O)[C@@H]([C@@H](C)CC)NC(=O)[C@H](CCCN=C(N)N)NC(=O)[C@@H](CC(=O)O)NC1=O	200
CC[C@H](C)[C@@H]1NC(=O)[C@@H](CCCN=C(N)N)NC(=O)[C@H](CC(=O)O)NC(=O)[C@@H]([C@@H](C)CC)NC(=O)[C@H](CCCN=C(N)N)NC(=O)CNC(=O)CNC(=O)[C@H](Cc2ccccc2)NC(=O)CN(C)C(=O)[C@@H](NC(=O)[C@@H](CO)NC(=O)[C@H](N)CO)CSSC[C@@H](C(=O)N[C@H](Cc2ccccc2)C(=O)N[C@H](CCCN=C(N)N)C(=O)O)NC1=O	410
CC[C@H](C)[C@@H]1NC(=O)[C@@H](CCCN=C(N)N)NC(=O)CNC(=O)CNC(=O)[C@@H](C2CCCCC2)NC(=O)[C@H](NC(=O)[C@H](N)CCCN=C(N)N)CSSC[C@H](C(=O)O)NC(=O)[C@@H](CCCN=C(N)N)NC(=O)[C@H](C)NC(=O)[C@@H]([C@@H](C)CC)NC(=O)[C@H](CCCN=C(N)N)NC(=O)[C@@H](CC(=O)O)NC1=O	280
